Read-outs that look alike come from different tables or passages of the source.
Assays:
[1] = target: T1, F1F0-ATPase (Bos taurus, UniProt P13621); test: Inhibition of F1F0-ATPase activity in synthesizing ATP; format: biochemical; conditions: inhibition of ATP synthesis by F1F0-ATPase; read-out: ATP Syn IC50
T1 construct: from tissue

[2] = test system: Ramos cells; test: Cytotoxicity in Ramos cells; format: cell-based; conditions: cytotoxicity in Ramos cells, read-out: Ramos Cell EC50

SMILES | IC50 [1] [µM] | EC50 ([2]; Homo sapiens) [µM] | EC50 [2] [µM]
O=C(/N=C(/NCC(F)(F)F)Nc1cc(C(F)(F)F)[nH]n1)c1ccc(C(F)(F)F)cc1 [Compound A-1] | < 10 | < 10 | –
O=C(/N=C(/NCc1cccc(C(F)(F)F)c1)Nc1cc(C(F)(F)F)[nH]n1)c1ccc(C(F)(F)F)cc1 [Compound A-2] | < 10 | < 10 | –
O=C(/N=C(/NCc1ccc(F)c(Cl)c1)Nc1cc(C(F)(F)F)[nH]n1)c1ccc(Cl)c(F)c1 [Compound A-3] | < 10 | < 10 | –
CC(C)(C)N/C(=N/C(=O)c1ccc(Cl)cc1)Nc1cc(C(F)(F)F)[nH]n1 [Compound A-4] | < 10 | < 10 | –
O=C(/N=C(/NCC(F)(F)F)Nc1cc(C(F)(F)F)[nH]n1)c1ccc(Cl)cc1 [Compound A-5] | < 10 | < 10 | –
CC1(N/C(=N/C(=O)c2ccc(Cl)cc2)Nc2cc(C(F)(F)F)[nH]n2)CCC1 [Compound A-6] | < 10 | < 10 | –
O=C(/N=C(\Nc1cc(C(F)(F)F)[nH]n1)NC(C1CC1)C1CC1)c1ccc(Cl)cc1 [Compound A-7] | < 10 | < 10 | –
O=C(/N=C(/NCc1ccccc1C(F)(F)F)Nc1cc(C(F)(F)F)n[nH]1)c1ccc(F)c(F)c1 [Compound A-8] | < 10 | < 10 | –
O=C(/N=C(/NCc1ccccc1C(F)(F)F)Nc1cc(C(F)(F)F)n[nH]1)c1ccc(Cl)cc1 [Compound A-9] | < 10 | < 10 | –
O=C(/N=C(/NCc1cccc(C(F)(F)F)c1)Nc1cc(C(F)(F)F)n[nH]1)c1ccc(Cl)cc1 [Compound A-10] | < 10 | < 10 | –
O=C(/N=C(/NCC(F)(F)F)Nc1cc(C(F)(F)F)n[nH]1)c1ccc(F)c(F)c1 [Compound A-11] | < 10 | < 10 | –
CC(C)(C)N/C(=N/C(=O)c1ccc(F)c(F)c1)Nc1cc(C(F)(F)F)n[nH]1 [Compound A-12] | < 10 | < 10 | –
CC(C)(C)N/C(=N/C(=O)c1ccc(C(F)(F)F)cc1)Nc1cc(C(F)(F)F)n[nH]1 [Compound A-13] | < 10 | < 10 | –
O=C(/N=C(\Nc1cc(C(F)(F)F)[nH]n1)NC1CCCCCC1)c1ccc(C(F)(F)F)cc1 [Compound A-14] | < 10 | < 10 | –
CC(C)(C)c1cc(N/C(=N\C(=O)c2ccc(Cl)cc2)NC(C2CC2)C2CC2)n[nH]1 [Compound A-15] | < 10 | < 10 | –
CC(C)(C)c1cc(N/C(=N\C(=O)c2ccc(Cl)cc2)NCC(F)(F)F)n[nH]1 [Compound A-16] | < 10 | < 10 | –
CC1(N/C(=N/C(=O)c2ccc(Cl)cc2)Nc2cc(C(C)(C)C)[nH]n2)CCC1 [Compound A-17] | < 10 | < 10 | –
O=C(/N=C(/NCc1ccc(F)cc1Cl)Nc1cc(C(F)(F)F)[nH]n1)c1ccc(C(F)(F)F)cc1 [Compound A-18] | < 10 | < 10 | –
O=C(/N=C(/NCc1ccc(F)c(Cl)c1)Nc1cc(C(F)(F)F)[nH]n1)c1ccc(C(F)(F)F)cc1 [Compound A-19] | < 10 | < 10 | –
O=C(/N=C(/NCc1ccc(Cl)c(F)c1)Nc1cc(C(F)(F)F)[nH]n1)c1ccc(C(F)(F)F)cc1 [Compound A-20] | < 10 | < 10 | –
O=C(/N=C(/NCc1ccc(Cl)cc1F)Nc1cc(C(F)(F)F)[nH]n1)c1ccc(C(F)(F)F)cc1 [Compound A-21] | < 10 | < 10 | –
CC(N/C(=N/C(=O)c1ccc(C(F)(F)F)cc1)Nc1cc(C(F)(F)F)[nH]n1)c1ccccc1Cl (centres unmarked) [Compound A-22] | < 10 | < 10 | –
CC(N/C(=N/C(=O)c1ccc(C(F)(F)F)cc1)Nc1cc(C(F)(F)F)[nH]n1)c1ccc(Cl)cc1 (centres unmarked) [Compound A-23] | < 10 | < 10 | –
O=C(/N=C(/NCc1ccc(F)cc1Cl)Nc1cc(C(F)(F)F)[nH]n1)c1ccc(F)c(F)c1 [Compound A-24] | < 10 | < 10 | –
O=C(/N=C(/NCc1ccc(F)c(Cl)c1)Nc1cc(C(F)(F)F)[nH]n1)c1ccc(F)c(F)c1 [Compound A-25] | < 10 | < 10 | –
O=C(/N=C(/NCc1ccc(Cl)c(F)c1)Nc1cc(C(F)(F)F)[nH]n1)c1ccc(F)c(F)c1 [Compound A-26] | < 10 | < 10 | –
O=C(/N=C(/NCc1ccc(Cl)cc1F)Nc1cc(C(F)(F)F)[nH]n1)c1ccc(F)c(F)c1 [Compound A-27] | < 10 | < 10 | –

SMILES | IC50 [1] [µM] | EC50 ([2]; Homo sapiens) [µM] | EC50 [2] [µM]
CC(N/C(=N/C(=O)c1ccc(F)c(F)c1)Nc1cc(C(F)(F)F)[nH]n1)c1ccccc1Cl (centres unmarked) [Compound A-28] | < 10 | < 10 | –
CC(N/C(=N/C(=O)c1ccc(F)c(F)c1)Nc1cc(C(F)(F)F)[nH]n1)c1ccc(Cl)cc1 (centres unmarked) [Compound A-29] | < 10 | < 10 | –
O=C(/N=C(/NCc1ccc(F)cc1Cl)Nc1cc(C(F)(F)F)[nH]n1)c1ccc(Cl)cc1 [Compound A-30] | < 10 | < 10 | –
O=C(/N=C(/NCc1ccc(F)c(Cl)c1)Nc1cc(C(F)(F)F)[nH]n1)c1ccc(Cl)cc1 [Compound A-31] | < 10 | < 10 | –
O=C(/N=C(/NCc1ccc(Cl)c(F)c1)Nc1cc(C(F)(F)F)[nH]n1)c1ccc(Cl)cc1 [Compound A-32] | < 10 | < 10 | –
O=C(/N=C(/NCc1ccc(Cl)cc1F)Nc1cc(C(F)(F)F)[nH]n1)c1ccc(Cl)cc1 [Compound A-33] | < 10 | < 10 | –
CC(N/C(=N/C(=O)c1ccc(Cl)cc1)Nc1cc(C(F)(F)F)[nH]n1)c1ccccc1Cl (centres unmarked) [Compound A-34] | < 10 | < 10 | –
CC(N/C(=N/C(=O)c1ccc(Cl)cc1)Nc1cc(C(F)(F)F)[nH]n1)c1cccc(Cl)c1 (centres unmarked) [Compound A-35] | < 10 | < 10 | –
CC(N/C(=N/C(=O)c1ccc(Cl)cc1)Nc1cc(C(F)(F)F)[nH]n1)c1ccc(Cl)cc1 (centres unmarked) [Compound A-36] | < 10 | < 10 | –
CC(C)(C)N/C(=N/C(=O)c1ccc(Cl)cc1)Nc1n[nH]cc1C#N [Compound A-37] | < 10 | > 10 | –
CC1(N/C(=N/C(=O)c2ccc(Cl)cc2)Nc2n[nH]c3ccccc23)CCC1 [Compound A-38] | < 10 | < 10 | –
O=C(/N=C(/NCc1cc(F)c(F)c(F)c1)Nc1cc(C(F)(F)F)[nH]n1)c1ccc(F)c(F)c1 [Compound A-39] | < 10 | – | –
CC(C)(C)N/C(=N/C(=O)c1ccc(Cl)c(F)c1)Nc1cc(C(F)(F)F)[nH]n1 [Compound A-40] | < 10 | < 10 | –
O=C(/N=C(\Nc1cc(C(F)(F)F)[nH]n1)NC1CCCCCC1)c1ccc(F)c(F)c1 [Compound A-41] | < 10 | < 10 | –
CC(C)(C)CN/C(=N/C(=O)c1ccc(Cl)cc1)Nc1cc(C(F)(F)F)n[nH]1 [Compound A-42] | < 10 | < 10 | –
CC(C)(C)CN/C(=N/C(=O)c1ccc(F)c(F)c1)Nc1cc(C(F)(F)F)n[nH]1 [Compound A-43] | < 10 | < 10 | –
CN(/C(=N\C(=O)c1ccc(F)c(F)c1)NC(C)(C)C)c1cc(C(F)(F)F)[nH]n1 [Compound A-44] | > 10 | > 10 | –
Cc1cc(N/C(=N\C(=O)c2ccc(F)c(F)c2)Nc2cc(F)cc(Cl)c2)n[nH]1 [Compound A-45] | < 10 | > 10 | –
COC(=O)c1cc(N/C(=N\C(=O)c2ccc(C(F)(F)F)cc2)NC(C)(C)C)[nH]n1 [Compound A-339] | – | – | > 10
CC(C)(C)N/C(=N/C(=O)c1ccc(Cl)c(F)c1)Nc1cc(-c2cc(F)cc(F)c2)n[nH]1 [Compound A-354] | – | – | < 10
CC1(N/C(=N/C(=O)c2ccc(Cl)c(F)c2)Nc2cc(-c3cc(F)cc(F)c3)n[nH]2)CCCC1 [Compound A-355] | – | – | > 10
CCC(C)N/C(=N/C(=O)c1ccc(Cl)c(F)c1)Nc1cc(-c2cc(F)cc(F)c2)n[nH]1 (centres unmarked) [Compound A-356] | – | – | < 10
CC(C)(N/C(=N/C(=O)c1ccc(Cl)c(F)c1)Nc1cc(-c2cc(F)cc(F)c2)n[nH]1)C(F)(F)F [Compound A-357] | – | – | > 10
CC1(N/C(=N/C(=O)c2ccc(Cl)c(F)c2)Nc2cc(-c3cc(F)cc(F)c3)n[nH]2)CC1 [Compound A-358] | – | – | < 10
COCC(C)(C)NC(=NC(=O)c1cccc(C#N)c1)Nc1cc(-c2ccc(F)cc2)n[nH]1 [Compound A-504] | < 10 | – | –
COCCOCC(C)(C)N/C(=N/C(=O)c1ccc(F)cc1)Nc1cc(-c2ccc(F)cc2)n[nH]1 [Compound A-507] | – | – | < 10
CC(C)CN/C(=N/C(=O)c1cccc(C#N)c1)Nc1cc(-c2ccc(F)cc2)n[nH]1 [Compound A-508] | – | – | < 10

From US9139532B2, “Pyrazolyl guanidine F1F0-atpase inhibitors and therapeutic uses thereof” (Lycera Corporation, priority 2010, dated 2015)
